Data: article PMC5359624, “A structure- and chemical genomics-based approach for repositioning of drugs against VCP/p97 ATPase” (Scientific Reports, 2017)
Values joined by “and” are separate entries in the source; they are usually repeats but may differ in a detail not shown here. Equal entries are not always repeated. Residues, ends and D or L forms follow the SMILES beside them. *: point of attachment. Cbz = O=C(OCc1ccccc1)*

Experiments:
NSCLC cells = tested on: NSCLC cells; set-up: method as in PMID 27333030; details: sub-micromolar concentrations; cited from earlier work
[1] = tested on: ODD-Luc (p97-independent proteasome substrate); assay: ODD-Luc degradation assay (dual-reporter HeLa cell line); format: cell-based; details: HeLa dual-reporter cells
Description: (§1) First, the activities of these compounds against VCP/p97 in a cell-based degradation assay[31] were evaluated. For this purpose, we used a dual-reporter system to monitor the ubiquitin-proteasome system (UPS) and VCP/p97 function in mammalian cells. This system comprises an ubiquitin fusion degradation (UFD) reporter Ub^G76V-GFP and the oxygen-dependent degradation domain of HIF1α fused to luciferase (ODD-Luc), a non-ERAD substrate for proteasomal degradation. Measurement of GFP and luciferase activity in response to a treatment allows to assess the effect on p97-dependent and p97-independent proteolysis.
(§2) A dual-reporter stable HeLa cell line was generated to monitor UPS function in mammalian cells. A ubiquitin fusion degradation (UFD) reporter Ub^G76V-GFP and an oxygen-dependent degradation domain of HIF1α fused to luciferase (ODD-Luc). […] Cells were seeded on 384-well plates (3000 cells/well) and grown for 18 h. Cells were treated with modified DMEM (without phenol red, folic acid, riboflavin, and vitamin B12) containing MG132 (4 μM) for 1 h and washed twice with pre-warmed PBS. […] Plates were imaged on the ImageXpress Micro microscope (Molecular Devices) after 160 min. Luciferase activity were measured by adding D-Luciferin (10 μl of 2.5 mg/mL in PBS) into each well containing 38 μl of medium and incubated at room temperature for 10 min. Use Synergy Neo (BioTek) to read Luciferase signal.

[2] = tested on: UbG76V-GFP (p97-dependent substrate); assay: UbG76V-GFP degradation assay (dual-reporter HeLa cell line); format: cell-based; details: HeLa dual-reporter cells, 160 min
Description: as §1, §2

WT VCP/p97 ATPase = WT VCP/p97 ATPase (Homo sapiens, UniProt P55072); assay: In vitro ATPase assay, WT VCP/p97; format: biochemical; details: 200 μM ATP, 8-dose titration
WT VCP/p97 ATPase, sequence (P55072 whole entry): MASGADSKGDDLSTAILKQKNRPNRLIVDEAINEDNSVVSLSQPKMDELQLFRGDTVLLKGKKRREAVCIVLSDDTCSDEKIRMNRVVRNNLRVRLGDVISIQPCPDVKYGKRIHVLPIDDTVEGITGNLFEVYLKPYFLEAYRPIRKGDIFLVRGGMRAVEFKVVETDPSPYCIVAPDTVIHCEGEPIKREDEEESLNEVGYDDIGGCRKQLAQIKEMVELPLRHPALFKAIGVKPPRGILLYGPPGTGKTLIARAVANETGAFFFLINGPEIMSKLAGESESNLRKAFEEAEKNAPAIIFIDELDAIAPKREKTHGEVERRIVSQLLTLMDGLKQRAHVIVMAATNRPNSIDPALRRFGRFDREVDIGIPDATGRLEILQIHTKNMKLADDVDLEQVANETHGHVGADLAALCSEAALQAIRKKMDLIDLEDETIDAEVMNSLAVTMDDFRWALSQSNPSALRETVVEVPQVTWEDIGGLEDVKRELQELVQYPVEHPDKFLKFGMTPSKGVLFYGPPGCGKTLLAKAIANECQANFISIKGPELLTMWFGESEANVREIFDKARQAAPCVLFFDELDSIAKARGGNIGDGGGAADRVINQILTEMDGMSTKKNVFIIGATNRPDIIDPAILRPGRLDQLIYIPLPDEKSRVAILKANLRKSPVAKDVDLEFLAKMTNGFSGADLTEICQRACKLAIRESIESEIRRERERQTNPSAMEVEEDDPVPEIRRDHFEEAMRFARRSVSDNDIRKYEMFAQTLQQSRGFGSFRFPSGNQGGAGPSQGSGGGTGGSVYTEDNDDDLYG
Description: (§3) In order to test direct inhibition of VCP/p97 ATPase activity by these compounds, we performed in vitro ATPase assays of the five UPS and VCP/p97 perturbing compounds to evaluate their inhibitory activity against VCP/p97.

E305Q VCP/p97 ATPase = E305Q VCP/p97 ATPase (Homo sapiens, UniProt P55072, E305Q); assay: In vitro ATPase assay, E305Q (D1 Walker B mutant, D2-active); format: biochemical; details: for IC50: 200 μM ATP, 8-dose titration
E305Q VCP/p97 ATPase, sequence (P55072 whole entry E305Q): as the sequence (P55072 whole entry) above, with E305Q counted along it
Description: as §3

E578Q VCP/p97 ATPase = E578Q VCP/p97 ATPase (Homo sapiens, UniProt P55072, E578Q); assay: In vitro ATPase assay, E578Q (D2 Walker B mutant, D1-active); format: biochemical; details: for IC50: 200 μM ATP, 8-dose titration
E578Q VCP/p97 ATPase, sequence (P55072 whole entry E578Q): as the sequence (P55072 whole entry) above, with E578Q counted along it
Description: as §3

VCP = tested on: VCP; set-up: method as in PMID 23892893; details: read-out: Experimental IC50; cited from earlier work
[3] = set-up: method as in PMID 23245311; details: oral administration in mice; cited from earlier work
[4] = cited from earlier work
tumor growth = details: 50 mg/kg, mice; cited from earlier work

CC(C)(C)c1ccc(C(=O)CCCN2CCC(OC(c3ccccc3)c3ccccc3)CC2)cc1 [Ebastine]
sensitization of NSCLC cells to chemotherapy (NSCLC cells): sensitized NSCLC cells to chemotherapy

Ivermectin
IC50 [1]: > 40 µM
IC50 [2]: 9.7 µM
IC50 (WT VCP/p97 ATPase): > 30 µM
IC50 WT VCP/p97 ATPase activity (WT VCP/p97 ATPase): did not show activity
IC50 (E305Q VCP/p97 ATPase): > 30 µM
IC50 (E578Q VCP/p97 ATPase): > 30 µM

NMS-862
IC50 (VCP): 2.66 µM

Cc1cc(OCc2nnc(SC3CCCC3)n2-c2cccnc2)ccc1-c1ccc(S(C)(=O)=O)cc1 [NMS-873]
IC50 ([1]; Homo sapiens): > 40 µM
IC50 [2]: 1.4 µM
bioavailability [3]: modest
systemic exposure [3]: modest
IC50 (VCP): 0.03 µM

Clc1ccccc1C(c1ccccc1)(c1ccccc1)n1ccnc1 [Clotrimazole]
IC50 (WT VCP/p97 ATPase): 12 µM
IC50 (E305Q VCP/p97 ATPase): 8 µM
IC50 (E578Q VCP/p97 ATPase): 8 µM and 8.2 µM
water solubility [4]: poor

c1ccc(CNc2nc(NCc3ccccc3)c3ccccc3n2)cc1 [DBeQ]
IC50 (WT VCP/p97 ATPase): 3 µM
IC50 (E305Q VCP/p97 ATPase): 5.5 µM
IC50 increase against the D1 mutant relative to wild-type VCP/p97 (E305Q VCP/p97 ATPase; E305Q vs WT): 1.8 fold
IC50 (E578Q VCP/p97 ATPase): 11 µM
IC50 increase against the D2 mutant relative to wild-type VCP/p97 (E578Q VCP/p97 ATPase; E578Q vs WT): 3.7 fold

NMS-249
IC50 (VCP): 0.29 µM

O=C(Nc1ccc([N+](=O)[O-])cc1Cl)c1cc(Cl)ccc1O [Niclosamide]
IC50 ([1]; Homo sapiens): > 40 µM
IC50 ([2]; Homo sapiens): > 40 µM

CC(C)(C)NC(=O)[C@@H]1C[C@@H]2CCCC[C@@H]2CN1C[C@@H](O)[C@H](Cc1ccccc1)NC(=O)[C@H](CC(N)=O)NC(=O)c1ccc2ccccc2n1 [Saquinavir]
IC50 ([1]; Homo sapiens): 20.8 µM
IC50 ([2]; Homo sapiens): 10.7 µM
IC50 (WT VCP/p97 ATPase): > 30 µM
IC50 (E305Q VCP/p97 ATPase): > 30 µM
IC50 (E578Q VCP/p97 ATPase): > 30 µM

CC(C)C[C@@H](C=O)NC(=O)[C@H](CC(C)C)NC(=O)[C@H](CC(C)C)NC(=O)OCc1ccccc1 [MG132] (Cbz-Leu-Leu-Leu-aldehyde)
IC50 ([1]; Homo sapiens): 4.4 µM
IC50 ([2]; Homo sapiens): 1.2 µM

CC#CCC(C)[C@H](O)/C=C/[C@@H]1[C@H]2C/C(=C/CCCC(=O)O)C[C@H]2C[C@H]1O (stereo partly drawn) [Iloprost]
IC50 ([1]; Homo sapiens): > 40 µM
IC50 ([2]; Homo sapiens): > 40 µM

COc1ccc(CCN2CCC(Nc3nc4ccccc4n3Cc3ccc(F)cc3)CC2)cc1 [Astemizole]
sensitization of NSCLC cells to chemotherapy (NSCLC cells): sensitized NSCLC cells to chemotherapy
tumor growth inhibition (tumor growth): sufficient to inhibit tumor growth
IC50 (WT VCP/p97 ATPase): 25 µM
IC50 (E305Q VCP/p97 ATPase): > 30 µM
IC50 (E578Q VCP/p97 ATPase): > 30 µM
